Laboratory results as given in patent US10548856B2, “Compounds and methods for modulating serotonin receptors in the periphery” (Northeastern University, priority 2015, dated 2020).
Where two headings read alike, the source gives them in different places.

Assays:
[1] = molecular target: T1, Human 5-HT7 (Homo sapiens, UniProt P34969); assay: In vitro binding affinity to serotonin 5-HT7 receptors using HEK293 cells
T1 construct: expressed in transfected cells; host or cells: HEK293
Excerpt: 2015, 6, 1259-1270. The compounds are tertiary amines and available to bind 5-HT7 receptors both in the brain and in the periphery. Each of the compounds can be derivatized to a corresponding positively-charged quaternary amine, for example, by the addition of a third alkyl group, R3, to render it impermeable to the blood-brain barrier and specific for peripheral 5-HT7 receptors.

[2] = test system: DOI HTR; assay: Attenuation of the DOI HTR; assay type: in vivo; details: 5.6 mg/kg
[3] = Plasma and brain concentrations after subcutaneous administration (LC-MS/MS); assay type: in vivo, C57Bl/6J mice; details: for concentration at 30 min / concentration at 60 min / concentration at 90 min: male, C57Bl/6J, mouse, 3.0 mg/kg subcutaneous, mice, mean (SEM); for concentration at 30 min: 30 min after injection; for concentration at 60 min: 60 min after injection; for concentration at 90 min: 90 min after injection
Description: At 30, 60, or 90 min later, mice were euthanized by rapid cervical dislocation and decapitation. Trunk blood was collected in pre-chilled, heparin-coated tubes. Brains were quickly excised and frozen in liquid nitrogen. Plasma was collected from blood after centrifugation for 5 min at 13,000 g. Whole brain samples were wrapped in foil, and brain and plasma samples were labeled and stored at −80° C. until liquid chromatography-mass spectrometry/mass spectrometry (LC-MS/MS) assays were performed. Frozen brain samples were weighed and homogenized in phosphate buffered saline (PBS), pH 7.4. After the first analysis, the extra brain homogenate was stored at −80° C. until they were thawed for a second, more dilute, analysis. Plasma samples were used directly upon arrival. The proteins from each plasma sample and a portion of each brain homogenate were immediately precipitated with 1:1 methanol:acetonitrile (4× starting volume) and internal standard ((−)-MBP^68) followed by centrifugation at 14,000 g for 5 minutes at 4° C. The resulting supernatants from each sample were dried under nitrogen. Each sample was reconstituted in methanol, vortexed, sonicated briefly, and centrifuged prior to LC-MS/MS analysis. Calibration curves were constructed from the ratios of the peak areas of 5-FPT versus (−)-MBP in extracted standards made in mouse plasma or homogenized mouse brain.
LC-MS/MS analysis was performed using an Agilent 1100 series HPLC and a Thermo Finnigan Quantum Ultra triple quad mass spectrometer. The mobile phases used were 0.1% formic acid in water (A) and 0.1% formic acid in methanol (B) in a 5 minute gradient. Samples of 10 μL each were injected onto a Phenomenex Gemini C18 column (2×50 mm, 5μ) with a C18 guard column. 5-FPT and its internal standard ((−)-MBP) were ionized in ESI+ and detected in SRM mode. Internal standards were used for quantification of the compound level per g tissue or per μL plasma. Four mice were included per group, but plasma levels from one mouse were not detectable due to low volume of blood collected.

[4] = brain, read-out: Brain concentration
[5] = plasma, read-out: Plasma concentration

T1 sequence (P34969 1-445 isoform P34969-2): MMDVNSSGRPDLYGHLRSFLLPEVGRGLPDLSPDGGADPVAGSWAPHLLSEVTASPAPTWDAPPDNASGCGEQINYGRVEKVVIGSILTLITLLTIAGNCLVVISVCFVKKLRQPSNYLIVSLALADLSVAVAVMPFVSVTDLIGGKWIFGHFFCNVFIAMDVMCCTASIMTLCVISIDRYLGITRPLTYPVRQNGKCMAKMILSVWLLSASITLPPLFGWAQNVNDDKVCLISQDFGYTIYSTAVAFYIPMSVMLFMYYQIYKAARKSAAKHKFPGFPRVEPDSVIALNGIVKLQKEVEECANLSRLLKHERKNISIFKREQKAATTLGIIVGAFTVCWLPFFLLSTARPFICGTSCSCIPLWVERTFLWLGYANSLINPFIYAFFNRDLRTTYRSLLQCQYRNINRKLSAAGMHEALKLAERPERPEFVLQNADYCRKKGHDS

Work on `CCCN(CCC)[C@H]1CCc2c(cccc2-c2ccccc2F)C1` [(S)-Propyl / 2′-F-Phenyl] yielded a Ki [1] of 35 ± 5.2 nM.
Work on `CN(C)C1CCc2c(cccc2-c2cccc(F)c2)C1` (racemic) [(R/S)-Methyl / Phenyl-3′-F] yielded a Ki [1] of 34 ± 6.2 nM.
In the case of `CN(C)C1CCc2c(cccc2-c2cccc(C(F)(F)F)c2)C1` (racemic) [(R/S)-Methyl / Phenyl-3′-CF3], the Ki [1] is reported as 63 ± 6.6 nM.
Compound `CCCN(CCC)[C@@H]1CCc2c(cccc2-c2ccccc2)C1` [(R)-Propyl / Phenyl] has a Ki [1] of 180 ± 31 nM.
For `COc1cc(-c2ccccc2)c2c(c1OC)CC(N(C)C)CC2` (racemic) [(R/S)-Methyl / 7,8-diOMe-5-Phenyl], the Ki [1] was greater than 10000 nM.
With `CN(C)[C@@H]1CCc2c(cccc2-c2ccccc2F)C1` [(R)-Methyl / Phenyl-2′-F] the Ki [1] was 260 ± 53 nM.
In the case of `CN(C)[C@H]1CCc2c(cccc2-c2cc(C(F)(F)F)cc(C(F)(F)F)c2)C1` [(S)-Methyl / Phenyl-3′,5′-CF3], the Ki [1] is reported as 910 ± 260 nM.
Compound `CN(C)[C@H]1CCc2c(cccc2-c2ccccc2)C1` [(S)-Methyl / Phenyl] has a Ki [1] of 9 ± 0.4 nM.
`CN(C)[C@H]1CCc2c(cccc2-c2ccc(Cl)cc2)C1` [(S)-Methyl / Pheny-4′-Cl] showed a Ki [1] of 72 ± 5.8 nM.
`CCCN(CCC)[C@H]1CCc2c(cccc2-c2ccccc2)C1` [(S)-Propyl / Phenyl] showed a Ki [1] of 83 ± 5.8 nM.
Work on `CN(C)C1CCc2c(cccc2OCc2ccccc2)C1` (racemic) [(R/S)-Methyl / O-Benzyl] yielded a Ki [1] greater than 10000 nM.
Work on `COc1cccc(-c2cccc3c2CCC(N(C)C)C3)c1` (racemic) [(R/S)-Methyl / Phenyl-3′-OMe] yielded a Ki [1] of 37 ± 9 nM.
Work on `CCCN(CCC)[C@@H]1CCc2c(cccc2-c2ccccc2F)C1` [(R)-Propyl / 2′-F-Phenyl] yielded a Ki [1] of 63 ± 2.7 nM.
With `CN(C)[C@@H]1CCc2c(cccc2-c2ccccc2)C1` [(R)-Methyl / Phenyl] the Ki [1] was 4400 ± 930 nM.
With `CN(C)C1CCc2c(cccc2-c2cc(F)cc(F)c2)C1` (racemic) [(R/S)-Methyl / Phenyl-3′,5′-F] the Ki [1] was 180 ± 32 nM.
For `CN(C)C1CCc2c(cccc2-c2cccc(Cl)c2)C1` (racemic) [(R/S)-Methyl / Phenyl-3′-Cl], the Ki [1] was 18 ± 2.4 nM.
With `CN(C)C1CCc2c(cccc2-c2cc(Cl)cc(Cl)c2)C1` (racemic) [(R/S)-Methyl / Phenyl-3′,5′-Cl] the Ki [1] was 40 ± 60 nM.
With `CN(C)C1CCc2c(cccc2-c2ccc(F)cc2)C1` (racemic) [(R/S)-Methyl / Phenyl-4′-F] the Ki [1] was 120 ± 17 nM.
`CN(C)[C@@H]1CCc2c(cccc2-c2ccccc2Cl)C1` [(R)-Methyl / Phenyl-2′-Cl] showed a Ki [1] of 58 ± 12 nM.
For `CN(C)C1CCc2c(cccc2-c2ccc(F)cc2Cl)C1` (racemic) [(R/S)-Methyl / Phenyl-2′-Cl-4′-F], the Ki [1] was 30 ± 10 nM.
In the case of `CN(C)C1CCc2c(cccc2-c2ccccc2F)C1` (single isomer, unassigned; (+)) [(+)-5-FPT, 5-(2′-fluorophenyl)-N,N-dimethyl-1,2,3,4-tetrahydronaphthalen-2-amine], the “Time for which attenuating effect on the DOI HTR remained significant” value [2] is reported as “up to 2 hrs”, the “Block of the DOI HTR” value ([2]; 3 hrs. post-administration) is reported as “did not block the DOI HTR” and the Blood-brain barrier crossing ([3]; 30, 60 and 90 min after systemic administration) is reported as “readily crosses the blood-brain barrier”. The “Clearance in the periphery (plasma relative to brain levels)” value ([3]; as soon as 30 min post-administration) was “rapidly cleared in the periphery”, the concentration at 30 min [3, 4] was 1780 ng/g and the concentration at 60 min [3, 4] was 2160 ng/g. It also gave a concentration at 90 min [3, 4] of 1460 ng/g, a concentration at 30 min [3, 5] of 114 ng/mL and a concentration at 60 min [3, 5] of 118 ng/mL. It also gave a concentration at 90 min [3, 5] of 70 ng/mL.
`CN(C)C1CCc2c(cccc2C2CCCC2)C1` (racemic) [(R/S)-Methyl / Cyclopentyl] gave a Ki [1] of 240 ± 35 nM.
`CN(C)[C@H]1CCc2c(cccc2-c2ccccc2Cl)C1` [(S)-Methyl / Phenyl-2′-Cl] gave a Ki [1] of 6 ± 0.6 nM.
For `CN(C)[C@H]1CCc2c(cccc2-c2ccccc2F)C1` [(S)-Methyl / Phenyl-2′-F], the Ki [1] was 6 ± 0.7 nM.
